# Results reported in US20240246968A1, “SMALL MOLECULE INHIBITORS OF KRAS G12C MUTANT” (Merck Sharp & Dohme LLC, priority 2021, published 2024).
# Tests used:
# [1] = tested on: cancer cells with the KRAS G12C mutation; settings: cited from earlier work
# [2] = tested on: tumor-bearing mice expressing the KRAS G12C mutation; settings: cited from earlier work
# [3] = target: biotinylated KRAS G12C protein (GMP-PNP loaded) and GST-tagged Ras binding domain of c-RAF (Homo sapiens, UniProt P01116, C118S/C51S/C80L/G12C); experiment: RAS:RAF-RBD binding assay (TR-FRET); type: biochemical; settings: 30-minute incubation with KRAS G12C, then RAF-RBD 60 minute
# Sequence of biotinylated KRAS G12C protein (GMP-PNP loaded) and GST-tagged Ras binding domain of c-RAF (P01116 with tags, fused parts or gaps isoform P01116-2 G12C/C51S/C80L/C118S): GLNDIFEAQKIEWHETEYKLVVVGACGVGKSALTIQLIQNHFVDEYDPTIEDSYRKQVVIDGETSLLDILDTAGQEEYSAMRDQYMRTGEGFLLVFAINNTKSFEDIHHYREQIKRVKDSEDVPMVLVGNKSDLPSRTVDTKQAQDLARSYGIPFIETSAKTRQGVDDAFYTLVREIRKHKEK
Compound,IC50 [3] [nM],further results
C=CC(=O)N1CC(N2CCN(C(=O)CNc3cc(C4(C)CC4)c(Cl)cc3O)CC2)C1 [ARS-853],,"inhibition of KRAS activity and antiproliferative effect under EGFR activation ([1]; KRAS G12C mutated cell line, EGFR activation): attenuated; induction of apoptosis ([1]; cancer cells with the KRAS G12C mutation): inducing apoptosis"
C=CC(=O)N1CCN(c2ncnc3c(F)c(-c4c(O)cccc4F)c(Cl)cc23)CC1 [ARS-1620],,antitumor action [2]: exerts antitumor action
"CO[C@H]1CC[C@H](NC/C=C/C(=O)Nc2c(F)cc(C(=O)n3ccc4c(-c5c(C(F)(F)F)cc6c(nc(C)n6C)c5Cl)cccc43)cc2F)CC1 [Example 126, (E)-N-(4-(4-(4-chloro-1,2-dimethyl-6-(trifluoromethyl)-1H-benzo[d]imidazol-5-yl)-1H-indole-1-carbonyl)-2,6-difluorophenyl)-4-(((1r,4r)-4-methoxycyclohexyl)amino)but-2-enamide]",28.3,
"Cc1nc2c(Cl)c(-c3cccn4c(C(=O)c5cc(F)c(NC(=O)/C=C/CNC6CCC6(C)C)c(F)c5)ccc34)c(C(F)(F)F)cc2n1C (stereo not drawn) [Example 127, mono((E)-4-chloro-5-(3-(4-(4-((2,2-dimethylcyclobutyl)ammonio)but-2-enamido)-3,5-difluorobenzoyl)indolizin-8-yl)-1,2-dimethyl-6-(trifluoromethyl)-1H-benzo[d]imidazol-3-ium) mono(2,2,2-trifluoroacetate)]",403,
"Cc1nc2c(Cl)c(-c3cccn4c(C(=O)c5cc(F)c(NC(=O)/C=C/CN(C)C)c(F)c5)ccc34)c(C(F)(F)F)cc2n1C [Example 128, mono((E)-4-chloro-5-(3-(4-(4-(dimethylammonio)but-2-enamido)-3,5-difluorobenzoyl)indolizin-8-yl)-1,2-dimethyl-6-(trifluoromethyl)-1H-benzo[d]imidazol-3-ium) mono(2,2,2-trifluoroacetate)]",159,
"Cc1nc2c(Cl)c(-c3cccn4c(C(=O)c5cc(F)c(NC(=O)/C=C/CN6CCCC6C(C)(C)O)c(F)c5)ccc34)c(C(F)(F)F)cc2n1C (stereo not drawn) [Example 129, mono((E)-4-chloro-5-(3-(3,5-difluoro-4-(4-(2-(2-hydroxypropan-2-yl)pyrrolidin-1-ium-1-yl)but-2-enamido)benzoyl)indolizin-8-yl)-1,2-dimethyl-6-(trifluoromethyl)-1H-benzo[d]imidazol-3-ium) mono(2,2,2-trifluoroacetate)]",101,
"Cc1nc2c(Cl)c(-c3cccn4c(C(=O)c5cc(F)c(NC(=O)/C=C/CN6CCC[C@H]6CO)c(F)c5)ccc34)c(C(F)(F)F)cc2n1C [Example 130, mono(4-chloro-5-(3-(3,5-difluoro-4-((E)-4-((2S)-2-(hydroxymethyl)pyrrolidin-1-ium-1-yl)but-2-enamido)benzoyl)indolizin-8-yl)-1,2-dimethyl-6-(trifluoromethyl)-1H-benzo[d]imidazol-3-ium) mono(2,2,2-trifluoroacetate)]",95.9,
"Cc1c(-c2cccn3c(C(=O)c4cc(F)c(NC(=O)/C=C/CN[C@H]5CCOC5)c(F)c4)ccc23)ccc2c1CCC2O (stereo partly drawn) [Example 132, (3S)—N-((E)-4-((2,6-difluoro-4-(8-(1-hydroxy-4-methyl-2,3-dihydro-1H-inden-5-yl)indolizine-3-carbonyl)phenyl)amino)-4-oxobut-2-en-1-yl)tetrahydrofuran-3-aminium 2,2,2-trifluoroacetate]",300,
